From publication PMC4814829, “Design, synthesis, crystallization and biological evaluation of new symmetrical biscationic compounds as selective inhibitors of human Choline Kinase α1 (ChoKα1)” (Scientific Reports, 2016) come the findings set out here.

SMILES strings stand for the structures.

In one assay the test system is A549 cells. The experiment in a line: Antiproliferative MTT assay. The assay is classed as cell-based. To be noted: Homo sapiens, 72 h, mean ± SEM. The essentials:
(§1)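 Seed 8 × 10^3 cells/well; incubate 18 h at 37 °C; swap medium for fresh medium with compound at several concentrations; incubate 72 h. Final DMSO never above 0.25%.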
(Formazan colour is commonly taken as a measure of viable cells.)

Another assay concerns HL-60 cells. The experiment in a line: Antiproliferative MTT assay. Format: cell-based. To be noted: Homo sapiens, 72 h, mean ± SEM. The essentials: as §1
A further assay relates to HT-29 cells. The experiment in a line: Antiproliferative MTT assay. Format: cell-based. To be noted: Homo sapiens, 72 h, mean ± SEM. The method, boiled down: as §1
In another assay the test system is HeLa cells. The experiment in a line: Antiproliferative MTT assay. The assay is classed as cell-based. Conditions: Homo sapiens, 72 h, mean ± SEM. The method, boiled down: as §1
For assay [1], the system named is Jurkat cells. The experiment in a line: Antiproliferative MTT assay. Format: cell-based. Conditions: Homo sapiens, 72 h, mean ± SEM. The method, boiled down: as §1
Another assay deals with MCF-7 cells. The assay is described as follows: Antiproliferative MTT assay. The assay is classed as cell-based. To be noted: Homo sapiens, MCF7, 72 h, mean ± SEM. The method, boiled down:
as §1

Another assay relates to MDA-MB-231 cells. The assay is described as follows: Antiproliferative MTT assay. Conditions: Homo sapiens, 72 h, mean ± SEM. The assay is classed as cell-based. The method, boiled down:
as §1

In another assay the test system is PC-3 cells. The experiment in a line: Antiproliferative MTT assay. Format: cell-based. Conditions: Homo sapiens, 72 h, mean ± SEM. The essentials:
as §1

The test system of the next assay is RS4,11 cells. The experiment in a line: Antiproliferative MTT assay. Format: cell-based. To be noted: Homo sapiens, 72 h, mean ± SEM. The essentials: as §1
The subject of assay [2] is Jurkat cells. The assay is described as follows: Trypan blue exclusion assay. Format: cell-based, human. As to the method:
Human T-cell leukemia (Jurkat), human B-cell leukemia (RS 4,11) and human promyelocytic leukemia (HL-60) cells were grown in RPMI-1640 medium (Gibco, Milan, Italy). Breast adenocarcinoma (MCF-7 and MDA-MB-231), human non-small cell lung carcinoma (A549), human cervix carcinoma (HeLa), human prostate adenocarcinoma (PC-3), and human colon adenocarcinoma (HT-29) cells were grown in DMEM medium (Gibco, Milan, Italy). […] Stock solutions (10 mM) of the different compounds were obtained by dissolving them in DMSO. Individual wells of 96-well tissue-culture microtiter plates were inoculated with 100 μL of complete medium containing 8 × 10^3 cells. The plates were incubated at 37 °C in a humidified 5% CO2 incubator for 18 h prior to the experiments. […] In additional experiments, cell viability was also determined by calculating the values of trypan blue positive cells (dead cells) and trypan blue negative (live cells) from a mixture of the cell suspension and 0.4% trypan blue solution. page 7: S-7 0 24 48 72 0.0 2.0x10 5 4.0x10 5 6.0x10^5 Cells/ml Time ([…] Figure S5 […] washed, counted, and incubated in a drug-free medium. After a further 72 h of incubation, cell viability was analyzed by trypan blue exclusion assay as described in the experimental section. (1 picture or pasted object on this page, not shown here)

Take `CN(C)c1cc[n+](Cc2ccc(OCCOc3ccc(C[n+]4ccc(N(C)C)cc4)cc3)cc2)cc1.[Br-].[Br-]` [Compound 10a, 1,1′-(((ethane-1,2-diylbis(oxy))bis(4,1-phenylene))bis(methylene))bis(4-(dimethylamino)pyridinium) bromide]: the GI50 (as a rule, the concentration that inhibits growth by half) in the assay with A549 cells turned out to be 27 ± 10 nM; in the assay on HL-60 cells it was 100 ± 40 nM; in the assay on HT-29 cells it was 110 ± 10 nM; in the assay on HeLa cells, 79 ± 24 nM; in the assay on Jurkat cells [1], 120 ± 80 nM; in the assay with MCF-7 cells, 92 ± 19 nM. Also, the GI50 turned out to be 100 ± 50 nM in the assay with MDA-MB-231 cells, 51 ± 10 nM in the assay with PC-3 cells and 45 ± 5 nM in the assay with RS4,11 cells. Besides, the “Proliferation after washout of compound” value in the assay on Jurkat cells [2] (72 h treatment, washed, further 72 h in drug-free medium) is “proliferation continued to be inhibited”. Besides, the “Cell growth by trypan blue count” value with Jurkat cells [2] (concentration-dependent) is “significantly inhibited cell growth”.
